Test: xn = mol fraction of the nth substance listed
Conditions: 101.3 kPa, Liquid

Cc1ccccc1C [1,2-dimethylbenzene] + C[S+](C)[O-]
Conditions	mass density [kg/m3]
293.15 K, x1 = 0.0858	1070.35
293.15 K, x1 = 0.1359	1054.5
293.15 K, x1 = 0.1957	1036.82
293.15 K, x1 = 0.2589	1019.38
293.15 K, x1 = 0.3283	1001.63
293.15 K, x1 = 0.3947	985.85
293.15 K, x1 = 0.4732	968.58
293.15 K, x1 = 0.5482	953.27
293.15 K, x1 = 0.6132	940.87
293.15 K, x1 = 0.6648	931.53
293.15 K, x1 = 0.7329	919.84
293.15 K, x1 = 0.8012	908.78
293.15 K, x1 = 0.8732	897.78
293.15 K, x1 = 0.9198	891.02
303.15 K, x1 = 0.0923	1059.85
303.15 K, x1 = 0.153	1040.84
303.15 K, x1 = 0.229	1018.94
303.15 K, x1 = 0.3013	999.82
303.15 K, x1 = 0.3539	986.84
303.15 K, x1 = 0.439	967.38
303.15 K, x1 = 0.4938	955.72
303.15 K, x1 = 0.5539	943.64
303.15 K, x1 = 0.615	932.03
303.15 K, x1 = 0.6849	919.56
303.15 K, x1 = 0.7537	907.99
303.15 K, x1 = 0.8327	895.54
303.15 K, x1 = 0.9123	883.82
313.15 K, x1 = 0.0794	1055.53
313.15 K, x1 = 0.1246	1040.99
313.15 K, x1 = 0.1936	1020.26
313.15 K, x1 = 0.2638	1000.86
313.15 K, x1 = 0.3248	985.24
313.15 K, x1 = 0.4058	966.09
313.15 K, x1 = 0.5732	931.27
313.15 K, x1 = 0.649	917.29
313.15 K, x1 = 0.7044	907.66
313.15 K, x1 = 0.7724	896.49
313.15 K, x1 = 0.8355	886.69
313.15 K, x1 = 0.8943	878.03
313.15 K, x1 = 0.9234	873.9
323.15 K, x1 = 0.0833	1045.74
323.15 K, x1 = 0.1489	1024.89
323.15 K, x1 = 0.1948	1011.29
323.15 K, x1 = 0.2587	993.57
323.15 K, x1 = 0.3278	975.84
323.15 K, x1 = 0.4039	957.84
323.15 K, x1 = 0.4632	944.82
323.15 K, x1 = 0.5399	929.1
323.15 K, x1 = 0.6012	917.37
323.15 K, x1 = 0.664	906.05
323.15 K, x1 = 0.7576	890.35
323.15 K, x1 = 0.8148	881.37
323.15 K, x1 = 0.8833	871.21
323.15 K, x1 = 0.9347	863.97
333.15 K, x1 = 0.0795	1038.47
333.15 K, x1 = 0.1399	1019.08
333.15 K, x1 = 0.2048	999.81
333.15 K, x1 = 0.2598	984.62
333.15 K, x1 = 0.3189	969.38
333.15 K, x1 = 0.3832	953.94
333.15 K, x1 = 0.4539	938.16
333.15 K, x1 = 0.5138	925.7
333.15 K, x1 = 0.5822	912.36
333.15 K, x1 = 0.6427	901.28
333.15 K, x1 = 0.7038	890.71
333.15 K, x1 = 0.7638	880.89
333.15 K, x1 = 0.8247	871.45
333.15 K, x1 = 0.9138	858.53
343.15 K, x1 = 0.0698	1033.25
343.15 K, x1 = 0.1587	1004.79
343.15 K, x1 = 0.2184	987.38
343.15 K, x1 = 0.275	972.02
343.15 K, x1 = 0.3576	951.35
343.15 K, x1 = 0.4247	935.94
343.15 K, x1 = 0.4933	921.29
343.15 K, x1 = 0.5539	909.2
343.15 K, x1 = 0.6349	894.13
343.15 K, x1 = 0.7038	882.21
343.15 K, x1 = 0.7971	867.23
343.15 K, x1 = 0.8621	857.5
343.15 K, x1 = 0.9324	847.62
353.15 K, x1 = 0.0431	1034
353.15 K, x1 = 0.1383	1002.49
353.15 K, x1 = 0.2043	982.8
353.15 K, x1 = 0.2748	963.47
353.15 K, x1 = 0.3534	943.75
353.15 K, x1 = 0.4148	929.55
353.15 K, x1 = 0.4829	914.87
353.15 K, x1 = 0.5457	902.24
353.15 K, x1 = 0.6198	888.33
353.15 K, x1 = 0.6831	877.21
353.15 K, x1 = 0.7598	864.61
353.15 K, x1 = 0.8244	854.67
353.15 K, x1 = 0.8846	845.91
353.15 K, x1 = 0.9423	837.96

Cc1cccc(C)c1 [1,3-dimethylbenzene] + C[S+](C)[O-]
Conditions	mass density [kg/m3]
293.15 K, x1 = 0.0679	1074.3
293.15 K, x1 = 0.1489	1046.5
293.15 K, x1 = 0.2044	1028.97
293.15 K, x1 = 0.2613	1012.13
293.15 K, x1 = 0.3487	988.35
293.15 K, x1 = 0.3975	976.03
293.15 K, x1 = 0.4578	961.7
293.15 K, x1 = 0.5244	946.87
293.15 K, x1 = 0.5896	933.28
293.15 K, x1 = 0.6597	919.61
293.15 K, x1 = 0.7393	905.13
293.15 K, x1 = 0.8218	891.15
293.15 K, x1 = 0.8835	881.33
293.15 K, x1 = 0.9412	872.62
303.15 K, x1 = 0.0735	1063.89
303.15 K, x1 = 0.1579	1035.01
303.15 K, x1 = 0.2387	1010.01
303.15 K, x1 = 0.3087	990.22
303.15 K, x1 = 0.3754	972.78
303.15 K, x1 = 0.4147	963.09
303.15 K, x1 = 0.4892	945.8
303.15 K, x1 = 0.5539	931.86
303.15 K, x1 = 0.6209	918.33
303.15 K, x1 = 0.6902	905.23
303.15 K, x1 = 0.7532	894.02
303.15 K, x1 = 0.8149	883.65
303.15 K, x1 = 0.8687	875.05
303.15 K, x1 = 0.9373	864.64
313.15 K, x1 = 0.0854	1051.04
313.15 K, x1 = 0.1527	1028.01
313.15 K, x1 = 0.2357	1002.14
313.15 K, x1 = 0.2978	984.4
313.15 K, x1 = 0.3576	968.48
313.15 K, x1 = 0.4077	955.97
313.15 K, x1 = 0.4676	941.86
313.15 K, x1 = 0.5239	929.42
313.15 K, x1 = 0.5823	917.24
313.15 K, x1 = 0.6521	903.59
313.15 K, x1 = 0.7389	887.82
313.15 K, x1 = 0.7912	878.91
313.15 K, x1 = 0.8513	869.17
313.15 K, x1 = 0.9327	856.77
323.15 K, x1 = 0.0746	1046.35
323.15 K, x1 = 0.1647	1015.41
323.15 K, x1 = 0.2138	999.97
323.15 K, x1 = 0.2847	979.25
323.15 K, x1 = 0.3579	959.6
323.15 K, x1 = 0.4135	945.75
323.15 K, x1 = 0.4724	931.98
323.15 K, x1 = 0.5249	920.42
323.15 K, x1 = 0.6038	904.17
323.15 K, x1 = 0.6739	890.78
323.15 K, x1 = 0.7598	875.54
323.15 K, x1 = 0.8133	866.63
323.15 K, x1 = 0.8732	857.15
323.15 K, x1 = 0.9239	849.51
333.15 K, x1 = 0.0673	1040.47
333.15 K, x1 = 0.1568	1009.3
333.15 K, x1 = 0.2249	987.86
333.15 K, x1 = 0.2935	968.02
333.15 K, x1 = 0.3687	948.04
333.15 K, x1 = 0.4312	932.71
333.15 K, x1 = 0.4921	918.76
333.15 K, x1 = 0.5638	903.47
333.15 K, x1 = 0.6304	890.23
333.15 K, x1 = 0.693	878.57
333.15 K, x1 = 0.7563	867.46
333.15 K, x1 = 0.8137	857.93
333.15 K, x1 = 0.8846	846.82
333.15 K, x1 = 0.9355	839.26
343.15 K, x1 = 0.0647	1032.84
343.15 K, x1 = 0.1491	1003.11
343.15 K, x1 = 0.2139	982.42
343.15 K, x1 = 0.2749	964.42
343.15 K, x1 = 0.3588	941.76
343.15 K, x1 = 0.4395	921.95
343.15 K, x1 = 0.5023	907.73
343.15 K, x1 = 0.5539	896.74
343.15 K, x1 = 0.6135	884.76
343.15 K, x1 = 0.675	873.12
343.15 K, x1 = 0.7523	859.44
343.15 K, x1 = 0.8132	849.34
343.15 K, x1 = 0.8643	841.29
343.15 K, x1 = 0.9247	832.25
353.15 K, x1 = 0.0734	1020.97
353.15 K, x1 = 0.1359	998.8
353.15 K, x1 = 0.1844	982.84
353.15 K, x1 = 0.2258	970
353.15 K, x1 = 0.2844	952.95
353.15 K, x1 = 0.3535	934.34
353.15 K, x1 = 0.4241	916.83
353.15 K, x1 = 0.4798	903.97
353.15 K, x1 = 0.5323	892.53
353.15 K, x1 = 0.6042	877.86
353.15 K, x1 = 0.6724	864.89
353.15 K, x1 = 0.7539	850.47
353.15 K, x1 = 0.8375	836.8
353.15 K, x1 = 0.9144	825.15
